# Reference: US10617679B2, “Deuterated compounds and medical uses thereof” (JINGLUWEIDAI INFORMATION CONSULTING SERVICE (BEIJING) CO. …, priority 2016, dated 2020)
# Key:
# rat formalin model = assay: Analgesic effects of intragastric administration in a rat formalin model; assay type: in vivo, SD rats; conditions: mean ± SD; for Reaction time for phase I: licking time 0-5 min after formalin; for Reaction time for Phase II: licking time 15-30 min after formalin
# Description: SD rats (male, weight 160-180 g) were randomly divided into groups with 6 rats in each group. After the rats were intragastrically administered different doses separately, they were placed in PVC observation boxes for habituation. After 30 min, the rats were injected subcutaneously with 20 μL of 2.7% formalin solution into the plantar surface of the left hind paws, and quickly put back in the PVC observation boxes for observation. The length of time the rats spent licking the injected-formalin paws at the early response (0-5 min, phase I) and the late response (15-30 min, Phase II) was recorded, and the analgesic activities of the test compounds were evaluated according to the length of time the rats spent licking during the period of observation. The experimental data were expressed as mean±standard deviation. The shorter the licking time, the better the analgesic effect of the compound.
# [1] = system: rat chronic sciatic nerve compression neuralgia model; assay: Analgesic effects of intragastric administration in a rat chronic sciatic nerve compression neuralgia model; assay type: in vivo, SD rats; conditions: pain threshold 1 hour after administration
# Description: SD rats (male, weight 160-180 g) were anesthetized using sodium pentobarbital (40 mg/kg), of which the sciatic nerves were separated in the middle segment of the right hind limbs. In the anterior segment of the sciatic nerve to be bifurcated, the sciatic nerve was separated from the surrounding tissue using a sterile glass hook. Four rings were loosely ligated with sterile chrome gut (No. 4, 0.15 mm in diameter) by an interval of 1 to 2 mm. Topically sprinkled with penicillin powder. The muscle tissue and skin were sutured. The rats were placed in a cage with cork dust. In the sham surgery group, the sciatic nerve was only exposed, and the other treatments were the same as described above. The rats after surgery were placed in a metal cage. […] The weight of the filament was recorded and set to be the threshold (in g). Meanwhile, the number of foot-lifting response to the 10 stimulations of the fiber filaments of different weights was recorded, and the highest threshold was set at 26 g.
# 5-6 rats in each group were intragastrically administered and the pain thresholds were measured 1 hour after administration. Statistical analysis of the thresholds was performed using non-parametric Wilcoxon 2-Sample Test and Kruskal-Wallis Test, and the data was analyzed with SASS data processing software. Analgesic percent (%)=(pain threshold after drug treatment−pain threshold before drug treatment)/(maximal analgesia threshold−pain threshold before drug treatment)[…].
# [2] = system: oxycodone-induced place preference in rats; assay: Inhibition of oxycodone-induced place preference in rats; assay type: in vivo, SD rats; conditions: day 10, within 15 minutes
# Description: SD rats (male, weight 160-180 g) were placed in conditioned place preference (CPP) training boxes, where the partition door between the boxes was open. Time the rats spent in each of the boxes was recorded within 15 min in order to determine the natural tendency of the rats. The rats were then randomly divided into groups with 10 rats in each group according to the amount of time spent in the white box. The white box was a drug box, and the black box was a box with the absence of the drug. After intragastric administration with a test compound for 40 minutes, the rats were injected subcutaneously with oxycodone (2.5 mg/kg, s.c.) or saline, and immediately placed in the white box or the black box to be trained for 45 minutes, once a day for 9 consecutive days. On the 10th day, the rats were placed in the training boxes with the partition door open. The time the rats spent in the white box was recorded within 15 minutes to evaluate effects on place preference in the rats.
# blood pressure in rats = assay: Effects on blood pressure in rats; assay type: in vivo, SD rats
# Description: (§1) SD rats (male, weight 160-180 g) were fasted for 12 hours before administration but had free access to drinking water. The rats were randomly divided into groups. They were anesthetized with an intraperitoneal injection of 50-60 mg/kg dose of sodium pentobarbital. Each rat was fixed on the back on the surgical table. The skin was cut from the center of the neck, and an incision of about 2.5 cm was made. The subcutaneous tissue and the median muscle were separated; the trachea was fully exposed; and the endotracheal intubation was performed. The subcutaneous tissue was separated from front to back on the right side; the right common carotid artery, the vagus nerve and the sympathetic nerve were exposed; and the carotid artery cannulation was performed. Finally, the endotracheal tube and the carotid artery cannula were respectively connected to a respiration transducer and a blood pressure transducer, and then connected to a multifunctional physiological recorder. At 30 minutes after surgery, the rats were intragastrically administrated. Heart rate and blood pressure were measured at different time points after administration.
# heart rate in rats = assay: Effects on heart rate in rats; assay type: in vivo, SD rats
# Description: as §1
# Wistar rats = assay: Evaluation of subacute toxicity (14 days, intragastric); assay type: in vivo; conditions: 40 mg/kg intragastric once a day for 14 days; for ALT / AST: rat
# Description: Male Wistar rats were randomly divided into groups with 10 rats in each group and weighed. A certain concentration of a test sample was ground and suspended in a 0.5% sodium carboxymethyl cellulose solution. The sodium carboxymethyl cellulose suspension containing 40 mg/kg of the test compound and a blank sodium carboxymethyl cellulose suspension as a control were intragastrically administered, once a day for 14 consecutive days. After the last administration, the rats were fasted but had free access to drinking water for 12 hours, and then anesthetized. Their blood samples were obtained from the abdominal aortas. According to SOPB093 “Standard Operating Procedures for Serum Preparation” in National Beijing Center for Drug Safety Evaluation and Research, serum was prepared for the determination of blood biochemical and immunological indicators; according to SOPB032 “Preparation of vacuum tubes with EDTA anticoagulation”, EDTA anticoagulation was prepared for the general blood routine tests.
# [3] = test dose 10 mg/kg intragastric + oxycodone 2.5 mg/kg s.c.
# [4] = test dose 20 mg/kg intragastric + oxycodone 2.5 mg/kg s.c.
# [5] = 20 mg/kg intragastric, time point 0
# [6] = 20 mg/kg intragastric, time point 30
# [7] = 20 mg/kg intragastric, time point 60
# [8] = 20 mg/kg intragastric, time point 90
# [9] = 20 mg/kg intragastric, time point 120
# [10] = 20 mg/kg intragastric, time point 180
# [11] = 40 mg/kg intragastric, time point 0
# [12] = 40 mg/kg intragastric, time point 60
# [13] = 40 mg/kg intragastric, time point 90
# [14] = 40 mg/kg intragastric, time point 120
# [15] = 40 mg/kg intragastric, time point 180
# [16] = 40 mg/kg intragastric, time point 30
SMILES,Reaction time for phase I (rat formalin model; 20 mg/kg intragastric),Reaction time for Phase II (rat formalin model; 20 mg/kg intragastric),Reaction time for phase I (rat formalin model; 40 mg/kg intragastric),Reaction time for Phase II (rat formalin model; 40 mg/kg intragastric),Analgesic percent ([1]; 20 mg/kg intragastric),Analgesic percent ([1]; 40 mg/kg intragastric),"Time spent in the drug box (Mean ± S) [2, 3]","Time spent in the drug box (Mean ± S) [2, 4]",Blood pressure (blood pressure in rats; [5]),Blood pressure (blood pressure in rats; [6]),Blood pressure (blood pressure in rats; [7]),Blood pressure (blood pressure in rats; [8]),Blood pressure (blood pressure in rats; [9]),Blood pressure (blood pressure in rats; [10]),Blood pressure (blood pressure in rats; [11]),Blood pressure (blood pressure in rats; [12]),Blood pressure (blood pressure in rats; [13]),Blood pressure (blood pressure in rats; [14]),Blood pressure (blood pressure in rats; [15]),Heart rate (heart rate in rats; [5]),also measured
"[2H]C([2H])([2H])Oc1cc2c(cc1OC([2H])([2H])[2H])[C@@H]1Cc3ccc(OC([2H])([2H])[2H])c(OC([2H])([2H])[2H])c3CN1CC2 [Formula I7, (13a S)-2,3,9,10-tetra-[(trideutero)-methoxy]-6,8,13,13a-tetrahydro-5H-isoquinolino[2,1-b]isoquinoline]",45.2 ± 9.9 s,58.2 ± 12.5 s,35.7 ± 9.0 s,35.9 ± 13.6 s,70.67%,73.53%,154.32 ± 21.38 s,135.40 ± 25.09 s,112.6 ± 27.5 mmHg,103.4 ± 11.7 mmHg,104.2 ± 9.8 mmHg,102.6 ± 7.2 mmHg,114.1 ± 11.3 mmHg,135.3 ± 15.6 mmHg,113.0 ± 11.4 mmHg,83.5 ± 7.2 mmHg,82.6 ± 6.5 mmHg,95.3 ± 9.5 mmHg,101.8 ± 8.1 mmHg,401.5 ± 32.1 BTM,Heart rate (heart rate in rats; [6]): 380.8 ± 33.4 BTM; Heart rate (heart rate in rats; [7]): 389.5 ± 26.6 BTM; Heart rate (heart rate in rats; [8]): 405.3 ± 31.0 BTM; Heart rate (heart rate in rats; [9]): 391.0 ± 24.9 BTM; Heart rate (heart rate in rats; [10]): 398.5 ± 28.8 BTM; Heart rate (heart rate in rats; [11]): 407.9 ± 29.5 BTM; Heart rate (heart rate in rats; [16]): 366.8 ± 27.7 BTM; Heart rate (heart rate in rats; [12]): 332.6 ± 24.9 BTM; Heart rate (heart rate in rats; [13]): 343.2 ± 21.0 BTM; Heart rate (heart rate in rats; [14]): 356.7 ± 25.8 BTM; Heart rate (heart rate in rats; [15]): 362.0 ± 32.1 BTM; ALT (Wistar rats): 84.5 ± 20.6 U/L; AST (Wistar rats): 143.8 ± 21.0 U/L; plasma ALT and AST versus control group (Wistar rats; result in words): no significant difference
"COc1cc2c(cc1OC)[C@@H]1Cc3ccc(OC)c(OC)c3CN1CC2 [THP, L-tetrahydropalmatine, reference compound]",86.8 ± 37.3 s,185.2 ± 39.7 s,40.6 ± 28.3 s,97.5 ± 33.6 s,27.41%,68.36%,253.23 ± 77.14 s,157.04 ± 60.6 s,111.5 ± 11.5 mmHg,109.4 ± 20.6 mmHg,105.00 ± 28.21 mmHg,105.1 ± 20.0 mmHg,112.7 ± 19.3 mmHg,113.3 ± 18.3 mmHg,114.2 ± 14.6 mmHg,81.63 ± 28.8 mmHg,79.00 ± 28.2 mmHg,91.6 ± 24.7 mmHg,97.3 ± 14.5 mmHg,399.3 ± 32.6 BTM,Blood pressure (blood pressure in rats; [16]): 98.0 ± 30.1 mmHg; Heart rate (heart rate in rats; [6]): 377.1 ± 52.3 BTM; Heart rate (heart rate in rats; [7]): 387.3 ± 50.5 BTM; Heart rate (heart rate in rats; [8]): 399.8 ± 60.7 BTM; Heart rate (heart rate in rats; [9]): 408.8 ± 55.9 BTM; Heart rate (heart rate in rats; [10]): 429.8 ± 25.5 BTM; Heart rate (heart rate in rats; [11]): 391.8 ± 32.9 BTM; Heart rate (heart rate in rats; [16]): 372.1 ± 46.5 BTM; Heart rate (heart rate in rats; [12]): 329.0 ± 63.2 BTM; Heart rate (heart rate in rats; [13]): 340.0 ± 71.4 BTM; Heart rate (heart rate in rats; [14]): 372.0 ± 64.6 BTM; Heart rate (heart rate in rats; [15]): 400.0 ± 30.5 BTM; ALT (Wistar rats): 160.0 ± 70.6 U/L; AST (Wistar rats): 216.8 ± 91.6 U/L; histopathological examination of liver (Wistar rats; result in words): vacuolar degeneration of hepatocytes; plasma ALT and AST versus control group (Wistar rats; result in words): significant increase
